From patent US10669269B2, “Substituted N-(1H-indazol-4-yl)imidazo[1,2-a]pyridine-3-carboxamide compounds as type III receptor tyrosine kinase inhibitors” (ARRAY BIOPHARMA INC., priority 2010, dated 2020)
Where a name gives a salt, the structure may show the parent alone.

Experiments:
cFMS = target: T1, cFMS (Homo sapiens, UniProt P07333); assay: cFMS Cell-Based Assay (Example C); details: averaged IC50; phospho-cFMS in THP-1 cells stimulated with 250 ng/mL recombinant human MCSF; read-out: cFMS Cell ELISA IC50
T1 construct: THP-1 cells (human acute monocytic leukemia cell line) were serum-starved for 4 hours; endogenous in cells; host or cells: THP-1 cells (human acute monocytic leukemia cell line)
T1 sequence (P07333 20-972): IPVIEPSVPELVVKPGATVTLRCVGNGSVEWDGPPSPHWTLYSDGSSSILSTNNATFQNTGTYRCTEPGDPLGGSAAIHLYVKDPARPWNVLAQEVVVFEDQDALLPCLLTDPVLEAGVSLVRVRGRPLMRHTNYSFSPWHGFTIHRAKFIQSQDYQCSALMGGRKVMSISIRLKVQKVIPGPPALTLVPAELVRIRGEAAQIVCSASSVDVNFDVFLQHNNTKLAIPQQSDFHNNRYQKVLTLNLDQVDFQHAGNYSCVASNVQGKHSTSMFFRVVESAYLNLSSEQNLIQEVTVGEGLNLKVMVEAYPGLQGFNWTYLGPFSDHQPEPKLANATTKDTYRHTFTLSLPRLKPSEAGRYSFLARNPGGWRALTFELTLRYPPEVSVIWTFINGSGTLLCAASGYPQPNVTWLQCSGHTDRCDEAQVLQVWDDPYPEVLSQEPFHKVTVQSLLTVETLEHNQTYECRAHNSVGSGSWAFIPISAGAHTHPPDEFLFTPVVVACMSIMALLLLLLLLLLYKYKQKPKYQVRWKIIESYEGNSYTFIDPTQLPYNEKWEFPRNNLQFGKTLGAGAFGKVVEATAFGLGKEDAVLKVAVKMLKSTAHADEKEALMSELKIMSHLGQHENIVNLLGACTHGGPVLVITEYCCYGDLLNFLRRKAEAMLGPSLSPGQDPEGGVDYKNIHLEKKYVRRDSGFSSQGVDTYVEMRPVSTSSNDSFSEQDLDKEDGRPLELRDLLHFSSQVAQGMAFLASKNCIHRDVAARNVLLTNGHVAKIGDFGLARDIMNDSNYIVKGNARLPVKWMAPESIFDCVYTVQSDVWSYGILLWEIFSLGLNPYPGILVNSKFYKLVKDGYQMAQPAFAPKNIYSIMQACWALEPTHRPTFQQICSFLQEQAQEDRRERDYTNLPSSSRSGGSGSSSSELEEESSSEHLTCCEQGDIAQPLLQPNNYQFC
In short: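 Phosphotyrosine on cFMS, captured from lysates and quantified by ELISA, reads receptor activation after 1 min of 250 ng/mL human MCSF. Beforehand, THP-1 cells were serum-starved for 4 h and exposed to compound for 1 h (9 points, 3-fold, typically up to 5,000 nM). IC50 from a 4-parameter logistic fit as 50 percent of control.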

c-KIT = target: T2, c-KIT (Homo sapiens, UniProt P10721); assay: c-KIT Cell-Based Assay (Example D); details: averaged IC50; phospho-c-KIT in M-07e cells stimulated with 150 ng/ml recombinant human SCF; read-out: cKIT Cell ELISA IC50
T2 construct: M-07e cells (human acute megakaryoblastic leukemia cell line) were serum-starved for 4 hours; endogenous in cells; host or cells: M-07e cells (human acute megakaryoblastic leukemia cell line)
T2 sequence (P10721 26-976): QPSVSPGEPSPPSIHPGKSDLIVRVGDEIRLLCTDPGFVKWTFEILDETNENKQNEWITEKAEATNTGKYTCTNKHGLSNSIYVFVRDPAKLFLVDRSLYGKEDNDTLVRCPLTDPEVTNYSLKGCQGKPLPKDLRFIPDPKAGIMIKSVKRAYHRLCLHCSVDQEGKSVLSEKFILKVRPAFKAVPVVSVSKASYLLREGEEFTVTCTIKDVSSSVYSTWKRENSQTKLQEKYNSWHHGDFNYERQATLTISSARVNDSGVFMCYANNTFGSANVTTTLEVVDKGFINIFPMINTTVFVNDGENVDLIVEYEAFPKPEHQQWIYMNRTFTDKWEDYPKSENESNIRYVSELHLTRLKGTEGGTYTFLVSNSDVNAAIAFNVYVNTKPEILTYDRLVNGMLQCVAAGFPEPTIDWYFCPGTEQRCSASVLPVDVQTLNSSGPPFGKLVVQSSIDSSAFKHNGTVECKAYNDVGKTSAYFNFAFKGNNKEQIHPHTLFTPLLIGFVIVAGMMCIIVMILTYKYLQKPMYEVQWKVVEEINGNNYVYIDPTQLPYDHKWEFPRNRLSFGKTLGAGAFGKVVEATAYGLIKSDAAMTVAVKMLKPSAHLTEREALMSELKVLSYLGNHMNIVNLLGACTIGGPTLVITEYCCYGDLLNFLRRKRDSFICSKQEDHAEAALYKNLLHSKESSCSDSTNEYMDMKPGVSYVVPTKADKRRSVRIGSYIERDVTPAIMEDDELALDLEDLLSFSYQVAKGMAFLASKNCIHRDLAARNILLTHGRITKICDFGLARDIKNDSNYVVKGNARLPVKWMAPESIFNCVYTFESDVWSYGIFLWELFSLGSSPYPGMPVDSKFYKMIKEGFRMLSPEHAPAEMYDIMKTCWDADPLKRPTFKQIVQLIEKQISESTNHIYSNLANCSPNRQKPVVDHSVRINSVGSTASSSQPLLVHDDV
In short: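 Phospho-c-KIT ELISA readout, calibrated with purified phospho-SCF R, gave IC50 (4-parameter fit, 50% of control). Before lysis, M-07e cells were starved 4 h, exposed 1 h to a 9-point 3-fold series (highest usually 5,000 nM), and stimulated with 150 ng/ml SCF for 4 min.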

PDGFR beta = target: T3, PDGFR beta (Homo sapiens, UniProt P09619); assay: Phospho PDGFR LICOR Cell Assay (Example B); assay type: cell-based; details: averaged IC50; PDGFR beta phosphorylation in HS27 human fibroblast cell line, PDGF-BB stimulation 10 minutes, normalized to total ERK
T3 construct: endogenous in cells; host or cells: HS27 human fibroblast cell line
T3 sequence (P09619 33-1106): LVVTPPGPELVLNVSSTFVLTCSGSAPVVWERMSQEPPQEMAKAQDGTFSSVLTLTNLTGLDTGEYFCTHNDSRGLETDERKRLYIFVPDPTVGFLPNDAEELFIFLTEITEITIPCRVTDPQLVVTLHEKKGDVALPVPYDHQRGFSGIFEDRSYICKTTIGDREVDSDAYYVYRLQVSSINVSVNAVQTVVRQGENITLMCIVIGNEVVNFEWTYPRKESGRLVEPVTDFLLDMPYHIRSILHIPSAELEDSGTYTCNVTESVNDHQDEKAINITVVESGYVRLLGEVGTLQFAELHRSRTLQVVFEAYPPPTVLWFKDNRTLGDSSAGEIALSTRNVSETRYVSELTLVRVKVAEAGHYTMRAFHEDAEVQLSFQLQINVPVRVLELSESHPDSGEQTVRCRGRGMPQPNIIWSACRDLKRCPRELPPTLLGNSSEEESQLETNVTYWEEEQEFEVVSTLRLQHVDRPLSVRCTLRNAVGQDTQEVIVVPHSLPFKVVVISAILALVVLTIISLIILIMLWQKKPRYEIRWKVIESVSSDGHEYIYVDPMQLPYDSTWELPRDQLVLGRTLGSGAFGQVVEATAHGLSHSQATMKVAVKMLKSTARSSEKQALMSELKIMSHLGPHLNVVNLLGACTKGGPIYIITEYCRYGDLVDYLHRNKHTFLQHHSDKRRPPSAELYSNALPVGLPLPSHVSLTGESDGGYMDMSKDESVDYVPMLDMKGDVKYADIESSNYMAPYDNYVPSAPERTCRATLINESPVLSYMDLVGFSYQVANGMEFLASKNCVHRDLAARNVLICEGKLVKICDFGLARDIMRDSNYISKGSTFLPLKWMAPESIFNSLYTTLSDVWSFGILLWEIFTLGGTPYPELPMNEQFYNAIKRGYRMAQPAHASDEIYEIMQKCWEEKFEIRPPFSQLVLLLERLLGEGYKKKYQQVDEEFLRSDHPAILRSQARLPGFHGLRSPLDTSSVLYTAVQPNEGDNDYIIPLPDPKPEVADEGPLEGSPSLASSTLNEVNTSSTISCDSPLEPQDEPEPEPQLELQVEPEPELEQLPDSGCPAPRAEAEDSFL
In short: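 Read-out is in-cell phospho-PDGFRβ/total-ERK infrared immunofluorescence in HS27 fibroblasts. Cells got 1 h compound exposure before a 10 min PDGF-BB challenge. A 4-parameter logistic fit gave IC50 as the concentration yielding 50 percent of control.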

IC50 (cFMS) [nM] | IC50 (c-KIT) [nM] | IC50 (PDGFR beta) [nM] | SMILES
24.6 | 8.7 | 9.3 | COCCOc1ccn2c(C(=O)Nc3cccc4c3cnn4Cc3ccc(OC)cc3)cnc2c1 [Example 114, N-(1-(4-methoxybenzyl)-1H-indazol-4-yl)-7-(2-methoxyethoxy)imidazo[1,2-a]pyridine-3-carboxamide]
185 | 192 | 54 | COCCOc1ccn2c(C(=O)Nc3cccc4c3cnn4CC3CCCN(C(=O)OC(C)(C)C)C3)cnc2c1 (stereo not drawn) [Example 116, tert-butyl 3-((4-(7-(2-methoxyethoxy)imidazo[1,2-a]pyridine-3-carboxamido)-1H-indazol-1-yl)methyl)piperidine-1-carboxylate]
310 | 581 | 178 | COCCOc1ccn2c(C(=O)Nc3cccc4c3cnn4Cc3cccnc3C)cnc2c1 [Example 118, 7-(2-methoxyethoxy)-N-(1-((2-methylpyridin-3-yl)methyl)-1H-indazol-4-yl)imidazo[1,2-a]pyridine-3-carboxamide]
20.9 | 73.1 | 13.3 | COCCOc1ccn2c(C(=O)Nc3cccc4c3cnn4Cc3cccnc3)cnc2c1 [Example 121, 7-(2-methoxyethoxy)-N-(1-(pyridin-3-ylmethyl)-1H-indazol-4-yl)imidazo[1,2-a]pyridine-3-carboxamide]
131 | 60.9 | 49.5 | COCCOc1ccn2c(C(=O)Nc3cccc4c3cnn4CC3CCN(C(=O)OC(C)(C)C)CC3)cnc2c1 [Example 122, tert-butyl 4-((4-(7-(2-methoxyethoxy)imidazo[1,2-a]pyridine-3-carboxamido)-1H-indazol-1-yl)methyl)piperidine-1-carboxylate]
8.3 | 9.5 | 6.9 | COCCOc1ccn2c(C(=O)Nc3cccc4c3cnn4Cc3ccc(C)nc3)cnc2c1 [Example 124, 7-(2-methoxyethoxy)-N-(1-((6-methylpyridin-3-yl)methyl)-1H-indazol-4-yl)imidazo[1,2-a]pyridine-3-carboxamide]
134 | 604 | 170 | COCCOc1ccn2c(C(=O)Nc3cccc4c3cnn4CC3CCCN(C(C)=O)C3)cnc2c1 (stereo not drawn) [Example 132, N-(1-((1-acetylpiperidin-3-yl)methyl)-1H-indazol-4-yl)-7-(2-methoxyethoxy)imidazo[1,2-a]pyridine-3-carboxamide]
8.5 | 3.9 | 1.9 | CC(C)c1cccc(Cn2ncc3c(NC(=O)c4cnc5cc(OCCN6CCN(C)CC6)ccn45)cccc32)n1 [Example 138, N-(1-((6-isopropylpyridin-2-yl)methyl)-1H-indazol-4-yl)-7-(2-(4-methylpiperazin-1-yl)ethoxy)imidazo[1,2-a]pyridine-3-carboxamide]
10.6 | 7.9 | 1.3 | Cc1cc(Cn2ncc3c(NC(=O)c4cnc5cc(OCCN6CCN(C)CC6)ccn45)cccc32)nn1C(C)C [Example 139, N-(1-((1-isopropyl-5-methyl-1H-pyrazol-3-yl)methyl)-1H-indazol-4-yl)-7-(2-(4-methylpiperazin-1-yl)ethoxy)imidazo[1,2-a]pyridine-3-carboxamide]
3.1 | 4.8 | 2.5 | COCCOc1ccn2c(C(=O)Nc3cccc4c3cnn4Cc3cccc(OC)c3)cnc2c1 [Example 140, N-(1-(3-methoxybenzyl)-1H-indazol-4-yl)-7-(2-methoxyethoxy)imidazo[1,2-a]pyridine-3-carboxamide]
4.4 | 3.7 | 1.6 | COCCOc1ccn2c(C(=O)Nc3cccc4c3cnn4Cc3cccc(Cl)c3)cnc2c1 [Example 141, N-(1-(3-chlorobenzyl)-1H-indazol-4-yl)-7-(2-methoxyethoxy)imidazo[1,2-a]pyridine-3-carboxamide]
6.9 | 6.1 | 14.2 | COCCOc1ccn2c(C(=O)Nc3cccc4c3cnn4Cc3cccc(C)n3)cnc2c1 [Example 142, 7-(2-methoxyethoxy)-N-(1-((6-methylpyridin-2-yl)methyl)-1H-indazol-4-yl)imidazo[1,2-a]pyridine-3-carboxamide]
4.8 | 58.9 | 12 | COCCOc1ccn2c(C(=O)Nc3cccc4c3cnn4Cc3cccc(C)c3)cnc2c1 [Example 143, 7-(2-methoxyethoxy)-N-(1-(3-methylbenzyl)-1H-indazol-4-yl)imidazo[1,2-a]pyridine-3-carboxamide]

The next lines start with the molecule.

SMILES | IC50 (cFMS) [nM] | IC50 (c-KIT) [nM] | IC50 (PDGFR beta) [nM]
COCCOc1ccn2c(C(=O)Nc3cccc4c3cnn4CC3CCCCC3)cnc2c1 [Example 115, N-(1-(cyclohexylmethyl)-1H-indazol-4-yl)-7-(2-methoxyethoxy)imidazo[1,2-a]pyridine-3-carboxamide] | 24.1 | 13.4 | 6.8
COCCOc1ccn2c(C(=O)Nc3cccc4c3cnn4Cc3cccc(OCc4ccccc4)c3)cnc2c1 [Example 119, N-(1-(3-(benzyloxy)benzyl)-1H-indazol-4-yl)-7-(2-methoxyethoxy)imidazo[1,2-a]pyridine-3-carboxamide] | 26.3 | 23 | 17.4
COCCOc1ccn2c(C(=O)Nc3cccc4c3cnn4Cc3ccc(C(F)(F)F)cc3)cnc2c1 [Example 120, 7-(2-methoxyethoxy)-N-(1-(4-(trifluoromethyl)benzyl)-1H-indazol-4-yl)imidazo[1,2-a]pyridine-3-carboxamide] | 34.4 | 14.5 | 7.7
COc1ccn2c(C(=O)Nc3cccc4c3cnn4Cc3ccccc3)cnc2c1 [Example 125, N-(1-benzyl-1H-indazol-4-yl)-7-methoxyimidazo[1,2-a]pyridine-3-carboxamide] | 12.5 | 19.8 | 2.1
O=C(Nc1cccc2c1cnn2Cc1ccccc1)c1cnc2ccccn12 [Example 126, N-(1-benzyl-1H-indazol-4-yl)imidazo[1,2-a]pyridine-3-carboxamide] | 27.4 | 22.2 | 34.5
CCOc1ccn2c(C(=O)Nc3cccc4c3cnn4Cc3ccccc3)cnc2c1 [Example 127, N-(1-benzyl-1H-indazol-4-yl)-7-ethoxyimidazo[1,2-a]pyridine-3-carboxamide] | 14.9 | 67.8 | 1.7
O=C(Nc1cccc2c1cnn2Cc1ccccn1)c1cnc2ccccn12 [Example 129, N-(1-(pyridin-2-ylmethyl)-1H-indazol-4-yl)imidazo[1,2-a]pyridine-3-carboxamide] | 80 | 124 | 117
COCCOc1ccn2c(C(=O)Nc3cccc4c3cnn4CC3CCCNC3)cnc2c1 (stereo not drawn) [Example 131, 7-(2-methoxyethoxy)-N-(1-(piperidin-3-ylmethyl)-1H-indazol-4-yl)imidazo[1,2-a]pyridine-3-carboxamide hydrochloride] | 993 | 5000 | 682
COCCOc1ccn2c(C(=O)Nc3c(Br)ccc4c3cnn4Cc3ccccc3)cnc2c1 [Example 134, N-(1-Benzyl-5-bromo-1H-indazol-4-yl)-7-(2-methoxyethoxy)imidazo[1,2-a]pyridine-3-carboxamide] | 3.1 | 11 | 2.4
COCCOc1ccn2c(C(=O)Nc3ccc(Cl)c4c3cnn4Cc3ccccc3)cnc2c1 [Example 135, N-(1-benzyl-7-chloro-1H-indazol-4-yl)-7-(2-methoxyethoxy)imidazo[1,2-a]pyridine-3-carboxamide] | 228 | 396 | 362
COCCOc1ccn2c(C(=O)Nc3c(Cl)cc(Cl)c4c3cnn4Cc3ccccc3)cnc2c1 [Example 136, N-(1-benzyl-5,7-dichloro-1H-indazol-4-yl)-7-(2-methoxyethoxy)imidazo[1,2-a]pyridine-3-carboxamide] | 20.7 | 54.1 | 1000
COCCOc1ccn2c(C(=O)Nc3c(Cl)ccc4c3cnn4Cc3ccccc3)cnc2c1 [Example 137, N-(1-benzyl-5-chloro-1H-indazol-4-yl)-7-(2-methoxyethoxy)imidazo[1,2-a]pyridine-3-carboxamide] | 3.1 | 3.1 | 2
O=C(Nc1cccc2c1cnn2Cc1ccccc1)c1cnc2cc(-c3cn[nH]c3)ccn12 [Example 145, N-(1-benzyl-1H-indazol-4-yl)-7-(1H-pyrazol-4-yl)imidazo[1,2-a]pyridine-3-carboxamide] | 20.5 | 55.9 | 13
CC(=O)c1ccn2c(C(=O)Nc3cccc4c3cnn4Cc3ccccc3)cnc2c1 [Example 146, 7-acetyl-N-(1-benzyl-1H-indazol-4-yl)imidazo[1,2-a]pyridine-3-carboxamide] | 58.2 | 36.9 | 109
